The structures appear in SMILES notation.

The nature of the data set: in vitro. To be noted: human, hela cells, % viability.

Consider `CCn1c(-c2ccc(C)cc2)cnc1SCC(=O)N1CCN(C(C)=O)CC1` [CBK296925], for which the viability at 28.5 h, 10 µM is 110%.

Take `COc1ccc(/C=C(\C)C(=O)NCc2ccc(OC3CCNCC3)cc2)cc1OC` [CBK038914T]: the viability at 28.5 h, 10 µM came to 90.9%.

Regarding `C[C@@H](Nc1nc(-c2ccco2)cnc1N)c1ccccc1` [CBK063737], the viability at 28.5 h, 10 µM was 108%.

As for `CC(=O)OC(C(=O)O)C(OC(C)=O)c1nc2ccccc2s1` (stereo not shown) [CBK264076], the viability at 28.5 h, 10 µM is 99.3%.

With `COc1ccc(-c2cc3cccnc3n2CC(=O)N2CCCC2)cc1` [CBK285379], the viability at 28.5 h, 10 µM is 84.3%.

`Cc1ccc(C2C(C(=O)c3cccs3)=C(O)C(=O)N2CCN2CCOCC2)o1` (stereo not shown) [CBK264559]: the viability at 28.5 h, 10 µM stood at 91.1%.

With `CC(=O)N1CCc2sccc2C1c1ccc(NC(=O)c2ccc(F)cc2)cc1` (stereo not shown) [CBK286434], the viability at 28.5 h, 10 µM was determined as 89%.

With `Cn1ncc(N2CCC(CNC(=O)COc3ccccc3)C2)cc1=O` (stereo not shown) [CBK306810], the viability at 28.5 h, 10 µM worked out at 92.3%.

For `CC(C)(C)OC(=O)N1CCCC(C(=O)NCc2ccco2)C1` (stereo not shown) [CBK305102], the viability at 28.5 h, 10 µM turned out to be 99.1%.

For `Cc1ccc(C(=O)CN2CCC3(CC2)NCCc2c3[nH]c3ccc(F)cc23)cc1` [CBK039503], the viability at 28.5 h, 10 µM was determined as 107%.

`O=C(CC1CCCCC1)N1CCC(n2nc(C3CC3)ccc2=O)CC1` [CBK284241]: the viability at 28.5 h, 10 µM was 88.6%.

Regarding `NC(=O)C1(Cc2ccccc2-c2ccccc2)CCN(C(=O)CCc2ccccc2)CC1` [CBK285595], the viability at 28.5 h, 10 µM stood at 107%.

As to `COc1ccccc1N1CCN(CCC(=O)Nc2cccc(F)c2)CC1` [CBK264254C], the viability at 28.5 h, 10 µM amounted to 92.8%.

Take `CCOC(=O)c1cccc(NS(=O)(=O)c2ccc(C)c([N+](=O)[O-])c2)c1` [CBK034343]: the viability at 28.5 h, 10 µM turned out to be 84.8%.

Turning to `COc1ccc(C(N)C2(O)CCN(Cc3ccccc3)CC2)cc1` (stereo not shown) [CBK091386], the viability at 28.5 h, 10 µM was found to be 107%.

`Cn1cc(/C=C(\C(=O)O)C(C(=O)O)=C2C3CC4CC(C3)CC2C4)c2ccccc21` [CBK263749]: the viability at 28.5 h, 10 µM turned out to be 96.5%.

With `Cc1ccc(CCC(=O)N(CCC#N)C2CCOCC2)c(C)c1` [CBK305809], the viability at 28.5 h, 10 µM is 87.4%.

With `COc1ccccc1-c1ccccc1CN(C)Cc1ccccc1N1CCOCC1` [CBK286000], the viability at 28.5 h, 10 µM came to 88.7%.

Turning to `Cc1ccc(-n2cc(CN(C)CC3(C)COC3)cn2)cc1` [CBK281720], the viability at 28.5 h, 10 µM came out at 93%.

As for `O=C(CSc1ccc2ccccc2n1)Nc1ccnc2ccccc12` [CBK176848], the viability at 28.5 h, 10 µM came out at 78.1%.

Turning to `CCCCC(=O)NC1CCN(C(=O)c2cccc(C#N)c2)CC1` [CBK306309], the viability at 28.5 h, 10 µM is 83.4%.

`O=C(Nc1ccc2oc(-c3ccccc3)nc2c1)C1CCCO1` (stereo not shown) [CBK107724]: the viability at 28.5 h, 10 µM is 84.1%.

`COc1cncc(-c2cncc(N[C@H](C)c3ccccc3)n2)c1` [CBK065537]: the viability at 28.5 h, 10 µM was 98.9%.

Consider `CCc1nc2ccc(C(=O)N(C)Cc3ccccc3)cn2c1N(C=O)CC` [CBK145936], for which the viability at 28.5 h, 10 µM came out at 102%.

On to `OCc1ccc(-c2nccnc2NCCc2c[nH]c3ccccc23)cc1` [CBK038004], for which the viability at 28.5 h, 10 µM turned out to be 98.8%.

For `Nc1nn2c(c1Cc1c(Cl)cccc1Cl)OC(=O)CCC2=O` [CBK093439], the viability at 28.5 h, 10 µM was found to be 113%.

Consider `Cc1nnnn1-c1cc(NC(=O)NCCCc2nc[nH]n2)ccc1F` [CBK304102], for which the viability at 28.5 h, 10 µM came to 87.7%.

As to `O=C1NC[C@@H](Cc2ccccc2)NC(=O)C2(C/C=C/COc3ccccc31)CCN(Cc1ncccc1F)CC2` [CBK292193], the viability at 28.5 h, 10 µM was found to be 111%.

For `COc1ccccc1-c1nccnc1OC(c1ccccc1)c1ccccc1` [CBK106813], the viability at 28.5 h, 10 µM was determined as 93.8%.

For the molecule `Cc1ccc(C(=O)NCc2ccco2)c(N2CCOCC2)n1` [CBK076410], the viability at 28.5 h, 10 µM was 89.9%.

Turning to `O=C(O)c1cc(-c2ccc(OC(F)F)cc2)[nH]n1` [CBK288022], the viability at 28.5 h, 10 µM was 87.1%.

With `COc1ccc(C(=O)N2CC[C@H]3CC(=O)N(CCNC(C)=O)CC[C@H]3C2)cc1` [CBK288784], the viability at 28.5 h, 10 µM was determined as 78.8%.

For the molecule `OCCCCn1c(-c2cccnc2)n[nH]c1=S` [CBK288365], the viability at 28.5 h, 10 µM was found to be 88.6%.

Turning to `CC(NC(=O)COc1ccc(Cl)cc1Cl)C(=O)O` (stereo not shown) [CBK261425], the viability at 28.5 h, 10 µM amounted to 91.2%.

Consider `O=[N+]([O-])c1ccc(-c2ccc(/N=C/c3ccco3)cc2)cc1` [CBK261639], for which the viability at 28.5 h, 10 µM was determined as 92.2%.

For `CCN(CC)Cc1c(O)ccc2cc(-c3nc4ccccc4[nH]3)c(=O)oc12` [CBK263824], the viability at 28.5 h, 10 µM was found to be 102%.

For `FC(F)(F)c1ccnc(OCc2ccc(Cl)c(Cl)c2)c1` [CBK116623], the viability at 28.5 h, 10 µM is 89.2%.

As for `COC(=O)c1cnc(Sc2ccc(Cl)cc2)nc1C(F)(F)F` [CBK009299], the viability at 28.5 h, 10 µM was determined as 95.9%.

As to `Cc1ncsc1CCOc1nccc(C(F)(F)F)n1` [CBK115798], the viability at 28.5 h, 10 µM stood at 80.3%.

As for `Cc1ccc(S(N)(=O)=O)cc1C(=O)Nc1nncs1` [CBK050456], the viability at 28.5 h, 10 µM amounted to 105%.

On to `C=CCOc1nc2c(=O)[nH]c(/N=C/N(C)C)nc2n1C1CC(O)C(CO)O1` (stereo not shown) [CBK201299], for which the viability at 28.5 h, 10 µM amounted to 93.3%.

As to `O=C(c1ccncc1)c1ccc(N2CCN(C3CC(=O)N(Cc4cccs4)C3=O)CC2)cc1` (stereo not shown) [CBK269074], the viability at 28.5 h, 10 µM amounted to 94.6%.

`CC(=O)Nc1cccc(-c2cnc3[nH]c(=O)n([C@@H](C)c4ccccc4)c3n2)c1` [CBK064159]: the viability at 28.5 h, 10 µM stood at 98.2%.

For the molecule `O=C(NO)Nc1ccc(Cl)c(Cl)c1` [CBK016929], the viability at 28.5 h, 10 µM (bulk resorufin, single well) was determined as 96.3%.

For `CN(C)c1ccc(CCNC(=O)c2c3c(nn2C)CCCC3)cc1` [CBK281824], the viability at 28.5 h, 10 µM is 96.4%.

Turning to `OC12CCCCC1CN(CC1=Cc3ccccc3OC1)CC2` (stereo not shown) [CBK282954], the viability at 28.5 h, 10 µM was 86.3%.

`COc1ccc(OC)c(C2C(C(=O)c3ccccc3)=C(O)C(=O)N2CCN2CCOCC2)c1` (stereo not shown) [CBK264748]: the viability at 28.5 h, 10 µM is 114%.

Take `O=C(O)Cc1ccc(Oc2ncc(C(F)(F)F)cc2Cl)cc1` [CBK161657]: the viability at 28.5 h, 10 µM was determined as 104%.

Consider `O=c1[nH]c(=O)c2cc(S(=O)(=O)N3CCc4[nH]c5ccccc5c4C3)ccc2[nH]1` [CBK285949], for which the viability at 28.5 h, 10 µM turned out to be 96.7%.

As for `c1cc(CNc2nccnc2-c2ccsc2)ccn1` [CBK037513], the viability at 28.5 h, 10 µM turned out to be 103%.

Turning to `COc1cccc(CN(Cc2ccco2)Cc2cnc(C)n2C)c1` [CBK282494], the viability at 28.5 h, 10 µM was 93.6%.

`Cc1ccc2ncc(C(=O)Nc3ccc(F)cc3F)c(=O)n2c1` [CBK287286]: the viability at 28.5 h, 10 µM stood at 95.6%.

For the molecule `NC(=O)CN1CCCC2(CCCCc3ccccc3OCC(=O)NC2)C1` (stereo not shown) [CBK292058], the viability at 28.5 h, 10 µM stood at 106%.

Turning to `O=C(c1ccc2c(c1)OCCO2)N1CCN(c2ncccn2)CC1` [CBK144519], the viability at 28.5 h, 10 µM stood at 89.5%.

For `Cc1nc([N+](=O)[O-])cn1CCC(=O)Nc1ccccc1Oc1ccccc1Cl` [CBK298319], the viability at 28.5 h, 10 µM is 101%.

As to `O=C(c1ccco1)N1CCN(c2cc(-c3ccccc3Oc3ccccc3)ncn2)CC1` [CBK037817], the viability at 28.5 h, 10 µM turned out to be 96.8%.

With `O=S(=O)(c1ccc2ccccc2c1)N1CCN(C2CCCCCCC2)CC1` [CBK264186G], the viability at 28.5 h, 10 µM was 98.3%.

Take `O=C(CCn1c(-c2ccccc2)c(-c2ccccc2)c2ccccc21)N/N=C/c1ccccc1O` [CBK262353]: the viability at 28.5 h, 10 µM worked out at 66.9%.

For the molecule `CC1CCN(Cc2ccc(-c3cn(CC(=O)NCc4ccc(Br)cc4)cn3)cc2)CC1` [CBK165969], the viability at 28.5 h, 10 µM is 104%.

For the molecule `CCCN(CCC)CCc1cccc2c1CCN2C(=O)c1cc2ccccc2s1` [CBK017871C], the viability at 28.5 h, 10 µM is 93.2%.

Turning to `Cc1ccccc1CNC(=O)c1ccc(C)c([N+](=O)[O-])c1` [CBK264010], the viability at 28.5 h, 10 µM amounted to 110%.

With `Cc1cc2oc(C(=O)Nc3nc(-c4ccc(S(=O)(=O)N5CCCC5)cc4)cs3)c(C)c2cc1C` [CBK266309], the viability at 28.5 h, 10 µM turned out to be 89.5%.

As to `c1ccc(CNc2nnc(-c3ccccc3)s2)cc1` [CBK074928], the viability at 28.5 h, 10 µM turned out to be 87.7%.

`COc1ccc(C2CCN(CC(=O)NC(C)(C)C)CC2)cc1` [CBK283558]: the viability at 28.5 h, 10 µM is 92.7%.

In the case of `Nc1ncc(-c2ccc(C(=O)N3CCOCC3)cc2)nc1C(=O)NC1CCCC1` [CBK149155], the viability at 28.5 h, 10 µM is 89.3%.

Consider `NC(=O)CSc1nc(NCc2ccccc2)nc(N2CCOCC2)n1` [CBK268923], for which the viability at 28.5 h, 10 µM turned out to be 93.3%.

For the molecule `Nc1cc(=O)[nH]c(=O)n1CCc1ccccc1` [CBK269984], the viability at 28.5 h, 10 µM was 86%.

For the molecule `COc1ccc(CNc2nc(-c3ccc(C)cc3)nn2C(=O)c2cccc([N+](=O)[O-])c2)cc1` [CBK268546], the viability at 28.5 h, 10 µM amounted to 67.9%.

With `COc1ccc(CCNC(=O)[C@@H]2Cc3c([nH]c4ccccc34)[C@]3(CCN(Cc4ccccc4)C3)N2)cc1OC` [CBK062620], the viability at 28.5 h, 10 µM stood at 114%.

`COc1ccc2c(c1)C1(CC(=O)N(Cc3ccc(OC)c(OC)c3)C1=O)C(=O)N2C` (stereo not shown) [CBK075157]: the viability at 28.5 h, 10 µM is 94.4%.

For `COCC(=O)N1CCc2cc(-c3cn4ccccc4n3)ccc21` [CBK285274], the viability at 28.5 h, 10 µM came out at 81.9%.

Turning to `CCn1cc(-c2cncn2CCCOc2cccc(C)c2)cn1` [CBK281760], the viability at 28.5 h, 10 µM worked out at 90.5%.

For `O=C(c1ccccc1)c1cccc(OCCOc2nccnc2N2CCNCC2)c1` [CBK014250G], the viability at 28.5 h, 10 µM came to 96.1%.

Regarding `CCOC(=O)N1CCN(S(=O)(=O)c2ccc3oc(=O)ccc3c2)CC1` [CBK305870], the viability at 28.5 h, 10 µM is 82.6%.

Consider `OCC1OC(n2cnc3c(S)ncnc32)C(O)C1O` (stereo not shown) [CBK012260], for which the viability at 28.5 h, 10 µM is 64.5%.

Consider `CSc1nc(N)nc2sc3c(O)cc(=O)[nH]c3c12` [CBK267457], for which the viability at 28.5 h, 10 µM was 105%.

In the case of `CC1(O)CCN(Cc2nnnn2-c2ccc(S(C)(=O)=O)cc2)CC1` [CBK304166], the viability at 28.5 h, 10 µM is 99.2%.

`Cc1csc2c(C3CCN(C(=O)c4ccncc4)CC3)nc(C)n12` [CBK285243]: the viability at 28.5 h, 10 µM amounted to 84.4%.

`CCN1CCN(c2ccc(NC(=O)c3ccc([N+](=O)[O-])c(C)c3)cc2)CC1` [CBK266503]: the viability at 28.5 h, 10 µM stood at 115%.

Source of the values: PMC12040169 (PLOS Biology, 2025).
